Reference: paper PMC4742142, “Identification of novel, in vivo active Chk1 inhibitors utilizing structure guided drug design” (Oncotarget, 2015)
Like-named read-outs stand apart in the source and are kept apart here.

Experiments:
[1] = molecular target: CDK1 (Homo sapiens, UniProt P06493); assay: In vitro kinase assay, CDK1; format: biochemical
Description: Kinase assays were performed as previously described.

[2] = system: HT29 cells; assay: Clonogenicity (colony formation) assay; format: cell-based, human; settings: HT29, 300 nM V158411 with gemcitabine, camptothecin or SN38
Description: HT29 cells were plated at a density of 300 cells per well in 6-well plates and allowed to attach for 4 hours. Cells were treated with gemcitabine, camptothecin or SN38 in the absence or presence of V158411 for 24 hours followed by drug free media for a further 14 days. Resulting colonies were stained and fixed with 0.1% crystal violet in 10% formaldehyde.

[3] = molecular target: Chk2 (Homo sapiens, UniProt O96017); assay: Etoposide induced Chk2 autophosphorylation (pS516) in HT29 cells, immunoblotting; format: cell-based; parameters: endogenous in cells; host or cells: HT29; settings: 1 hour compound then 25 μM etoposide 5 hours
Description: (§1) Figure 3 Effect of V158411 on etoposide, gemcitabine and camptothecin induced DNA damage checkpoint and cell cycle proteins A. HT29 cells were exposed to increasing concentrations of V158411 for 1 hour followed by 25 μM etoposide for a further 5 hours. Auto-phosphorylation of Chk1 and Chk2 was determined by immunoblotting. B. HT29 cells were treated with gemcitabine (25 nM) or camptothecin (50 nM) for 16 hours followed by increasing doses of V158411 for a further 24 hours. C. HT29 cells were treated with 500 nM V158411 for 1 hour, media removed and replaced with drug free. Cells were harvested at the indicated time points post the removal of V158411. D. HT29 cells were treated with 0 or 100 nM camptothecin for 16 hours followed by V158411 for 2 - 24 hours. After the indicated time, media was removed and replaced with drug free media. All cells were harvested 24 hours after the initial addition of V158411. Protein expression was characterized by immunoblotting as described in materials and methods.
(§2) Anti-pHistone H3 (S10) was obtained from Millipore; pCdc2 (Y15), pCdc25C (S216), Chk1, pChk1 (S317), pChk2 (S516), Cyclin B1, pH2AX (S139), GAPDH and Actin from Cell Signaling Technologies and pChk1 (S296) from Abcam. […] Protein concentration was determined using BCA kit (Pierce). […]

[4] = Plasma pharmacokinetics, IV bolus; format: in vivo; settings: 10 mg/kg IV; for Vd: read-out: Vss
Description: (§3) Dosing of animals and collection of samples was conducted by Quotient Bioresearch (Rushden) Ltd, UK. V158411 was administered by intravenous (IV) bolus injection to female Balb/C mice, male Sprague-Dawley rats or male beagle dogs. Plasma samples were prepared by protein precipitation with acetonitrile containing internal standard (IS; dextromethorphan, 0.5 μg/mL); the analysis plate was centrifuged at 3,000 rpm for 10 minutes at 4°C. […] The ratios of analyte against IS peak areas were calculated, and concentrations derived from calibration lines generated by Quanlynx (Waters Ltd.).
(§4) Pharmacokinetic parameters were calculated using the software package WinNonLin (Pharsight Corp.). Data was analyzed using noncompartmental analysis and fitted using plasma concentration versus time curves.

[5] = molecular target: T1, Chk1 (Homo sapiens, UniProt O14757); assay: Etoposide induced Chk1 autophosphorylation (pS296) in HT29 cells, immunoblotting; format: cell-based
T1 sequence (O14757 1-476): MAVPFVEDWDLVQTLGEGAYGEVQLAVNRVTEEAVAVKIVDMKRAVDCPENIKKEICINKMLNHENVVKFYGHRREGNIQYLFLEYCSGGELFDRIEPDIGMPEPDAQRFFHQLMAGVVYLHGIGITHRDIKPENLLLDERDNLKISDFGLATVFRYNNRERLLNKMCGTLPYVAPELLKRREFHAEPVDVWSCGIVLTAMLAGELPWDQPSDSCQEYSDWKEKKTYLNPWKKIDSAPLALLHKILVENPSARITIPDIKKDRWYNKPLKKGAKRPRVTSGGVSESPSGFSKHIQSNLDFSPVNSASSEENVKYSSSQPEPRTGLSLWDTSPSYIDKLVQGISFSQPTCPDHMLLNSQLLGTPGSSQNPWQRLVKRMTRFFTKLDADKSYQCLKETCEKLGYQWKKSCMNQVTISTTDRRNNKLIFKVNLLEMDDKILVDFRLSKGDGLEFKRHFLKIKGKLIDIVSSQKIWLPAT
Description: as §1
Anti-pHistone H3 (S10) was obtained from Millipore; pCdc2 (Y15), pCdc25C (S216), Chk1, pChk1 (S317), pChk2 (S516), Cyclin B1, pH2AX (S139), GAPDH and Actin from Cell Signaling Technologies and pChk1 (S296) from Abcam. Treated and untreated cells were washed once with PBS and lysed in RIPA buffer containing protease and phosphatase inhibitor cocktail (Roche). Protein concentration was determined using BCA kit (Pierce). Equal amounts of lysate were separated by SDS-PAGE and western blot analysis conducted using the antibodies indicated above.

[6] = Plasma and tumor pharmacokinetics in HT29 tumor bearing mice; format: in vivo; settings: mouse, HT29 tumor bearing mice, 30 mg/kg IV
Description: as §3, §4

[7] = molecular target: T1, Chk1; assay: Western blotting of pChk1 (S296) in HT29 cells (gemcitabine or camptothecin; washout); format: cell-based; settings: 500 nM for 1 hour then drug free media
Description: as §1, §2

[8] = system: panel of 386 kinases; assay: Wide panel binding assay, whole panel; settings: at pharmacologically relevant doses
Description: Selectivity against the cell cycle kinase CDK1 is considered critical for the pharmacological activity of Chk1 inhibitors as inhibiting it would prevent the G2 checkpoint abrogation and entry into mitosis; critical for the potentiation of cytotoxic DNA damage. Against a panel of 386 kinases in a wide panel binding assay, V158411 inhibited the activity of one kinase (Chk1) in the range 99-100%, three kinases 90-99% and 19 kinases 65-90% at 50 nM (Supplementary Table 1).

[9] = Pharmacokinetics of V158411 and irinotecan, single and combination administration; format: in vivo; settings: mouse; for half-life / CL/F: female, Balb/C, plasma; for CL/F: read-out: CL or CL/F
Description: as §3, §4

[10] = system: panel of human cancer cell lines; assay: Single agent cytotoxicity, whole panel; format: cell-based; settings: range over the cell lines, read-out: GI50s across the panel
Description: All cells were obtained from the American Type Culture Collection and maintained as low passage stocks. Cells were routinely cultured in DMEM or RPMI1640 containing 10% FCS and 1% penicillin / streptomycin (Invitrogen). The cytotoxicity of V158411 was determined following exposure of cells in 96 well plates using a 10-point titration for 72 hours. Cell proliferation was determined using sulphorhodamine B staining following protein precipitation with 10% TCA.

[11] = other: V158411 intravenous, irinotecan intraperitoneal
[12] = other: irinotecan intraperitoneal, V158411 intravenous

CDK1, sequence (P06493 whole entry): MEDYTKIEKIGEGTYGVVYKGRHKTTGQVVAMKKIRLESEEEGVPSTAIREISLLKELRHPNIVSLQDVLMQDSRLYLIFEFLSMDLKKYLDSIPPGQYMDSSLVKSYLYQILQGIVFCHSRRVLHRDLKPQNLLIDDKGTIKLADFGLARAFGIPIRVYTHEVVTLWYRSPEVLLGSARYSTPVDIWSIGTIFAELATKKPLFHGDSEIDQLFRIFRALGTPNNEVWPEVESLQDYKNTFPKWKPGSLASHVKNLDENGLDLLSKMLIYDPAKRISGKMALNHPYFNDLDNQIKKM
CDK1, sequence (P14635 whole entry partner): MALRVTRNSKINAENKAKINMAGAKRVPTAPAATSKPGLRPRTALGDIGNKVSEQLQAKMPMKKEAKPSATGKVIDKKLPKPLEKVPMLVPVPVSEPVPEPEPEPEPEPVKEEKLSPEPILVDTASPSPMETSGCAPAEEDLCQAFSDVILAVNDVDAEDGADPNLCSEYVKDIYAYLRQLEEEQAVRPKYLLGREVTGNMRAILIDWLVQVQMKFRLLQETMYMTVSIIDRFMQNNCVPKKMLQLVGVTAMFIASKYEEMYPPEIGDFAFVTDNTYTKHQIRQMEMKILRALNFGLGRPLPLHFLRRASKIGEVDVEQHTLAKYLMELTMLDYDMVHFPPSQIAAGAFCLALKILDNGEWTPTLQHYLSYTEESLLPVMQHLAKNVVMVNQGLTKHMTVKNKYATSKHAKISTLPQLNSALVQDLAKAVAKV
Chk2, sequence (O96017 whole entry): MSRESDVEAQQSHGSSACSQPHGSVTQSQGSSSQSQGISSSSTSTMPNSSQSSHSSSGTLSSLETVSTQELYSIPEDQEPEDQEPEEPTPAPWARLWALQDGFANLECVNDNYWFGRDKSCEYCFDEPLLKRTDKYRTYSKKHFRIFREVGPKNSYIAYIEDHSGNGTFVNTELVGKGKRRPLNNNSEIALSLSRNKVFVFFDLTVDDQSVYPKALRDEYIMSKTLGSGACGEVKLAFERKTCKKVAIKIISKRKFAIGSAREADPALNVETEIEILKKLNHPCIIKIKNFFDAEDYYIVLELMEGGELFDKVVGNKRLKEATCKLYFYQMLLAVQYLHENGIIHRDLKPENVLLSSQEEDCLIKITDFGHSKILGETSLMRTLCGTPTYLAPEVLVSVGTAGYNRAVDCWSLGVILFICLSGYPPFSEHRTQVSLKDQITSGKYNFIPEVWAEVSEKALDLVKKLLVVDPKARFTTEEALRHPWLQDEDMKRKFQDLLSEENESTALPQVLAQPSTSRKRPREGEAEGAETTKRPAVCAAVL

SMILES: CN(C)CC(C)(C)COc1ccc2[nH]c(-c3cc(NC(=O)c4cnn(Cc5ccccc5)c4)c[nH]c3=O)cc2c1 [V158411]
- IC50 [1]: > 50 µM
- selectivity for CDK1 ([1]; Chk1 versus CDK1): more than 10 000 fold
- effect on fraction of cells killed in colony formation [2]: significantly increased the fraction of cells killed by all three agents
- IC50 [3]: 0.904 µM
- AUC(0-t) ([4]; female, Balb/C, mouse): 7100 ng·h/mL
- clearance ([4]; female, Balb/C, mouse): 20 mL/min/kg
- half-life ([4]; female, Balb/C, mouse): 2.9 h
- Vd ([4]; female, Balb/C, mouse): 3.3 L/kg
- AUC(0-t) ([4]; male, Sprague-Dawley, rat): 6910 ng·h/mL
- clearance ([4]; male, Sprague-Dawley, rat): 23.2 mL/min/kg
- half-life ([4]; male, Sprague-Dawley, rat): 3.3 h
- Vd ([4]; male, Sprague-Dawley, rat): 2.4 L/kg
- AUC(0-t) ([4]; male, beagle, dog): 16000 ng·h/mL
- clearance ([4]; male, beagle, dog): 10.6 mL/min/kg
- half-life ([4]; male, beagle, dog): 3.2 h
- Vd ([4]; male, beagle, dog): 1.2 L/kg
- IC50 for Chk1 autophosphorylation and EC50 for H2AX phosphorylation lower than single agent GI50 [5]: around 10 fold
- IC50 ([5]; 1 hour compound then 25 μM etoposide 5 hours): 0.048 µM
- cellular selectivity for Chk1 versus Chk2 ([5]; etoposide): 19 fold
- clearance ([6]; plasma): 24 mL/min/kg
- half-life ([6]; plasma, read-out: half-life (plasma) (converted)): 4.1 h
- Vd ([6]; plasma, read-out: volume of distribution): 2.5 L/kg
- half-life ([6]; read-out: elimination half-life in the tumor (converted)): 22 h
- Kp ([6]; tumor versus plasma, read-out: tissue/plasma AUC0-24h ratio): 4.7
- duration of Chk1 inhibition (pChk1 S296) after removal of compound from the culture media [7]: at least 24 hours
- selectivity for Chk1 over the majority of the kinases in the panel [8]: > 100 fold
- half-life [9, 11]: 3.4 h
- CL/F [9, 11]: 17.7 mL/min/kg
- half-life [9, 12]: 3.3 h
- CL/F [9, 12]: 8.2 mL/min/kg
- AUClast fold change ([9]; combination (C) versus single administration (I)): 2.2 fold
- IC50 [10]: 0.5 to 9.5 µM
